This experiment has as its system BDF1 mice, P388 leukemia (terephthalanilide-resistant), survival T/C. Briefly: NCI In Vivo Anticancer Drug Screen. Data for tumor model P388 Leukemia resistant to A Terephthalanilide; NSC 38280 (intraperitoneal) in B6D2F1 (BDF1) mice. As to conditions: endpoint: median survival time, schedule: Q01DX010 (ip), vehicle: saline, higher = longer survival. On the procedure:
The antitumor activity of compounds was measured in mice bearing transplantable tumors. Survival or tumor size were measured and the results are expressed as the measurement made in the treated group (T) divided by the measurement made in the vehicle treated control group (C). The tumor model used in this assay is P388 Leukemia resistant to A Terephthalanilide; NSC 38280 (intraperitoneal) in B6D2F1 (BDF1) mice

Values joined by “and” are separate entries in the source; they are usually repeats but may differ in a detail not shown here. Equal entries are not always repeated. Toxic doses and inconclusive results are not listed.

Take `CC(=O)Nc1ccc2nc3ccc(NC(C)=O)cc3[n+](-c3ccccc3)c2c1`: the T/C reads like this: (dose: 7.8 mg/kg/injection) 90 % of control; (dose: 15.6 mg/kg/injection) 90 % of control.

`CN(N=O)C(=O)NC(C=O)C(O)C(O)C(O)CO` (stereo not given): the T/C reads like this: (dose: 27.0 mg/kg/injection) 109 % of control; (dose: 40.0 mg/kg/injection) 113 % of control; (dose: 60.0 mg/kg/injection) 154 % of control; (dose: 90.0 mg/kg/injection) 113 % of control.

For the compound `Nc1cc(C(=O)Nc2ccc(C3=NCCN3)cc2)cc(C(=O)Nc2ccc(C3=NCCN3)cc2)c1`, the T/C is 111 % of control (dose: 16.0 mg/kg/injection) and 183 % of control (dose: 64.0 mg/kg/injection).

Regarding `O=c1cnn(C2OC(CO)C(O)C2O)c(=O)[nH]1` (stereo not given), the T/C is 120 % of control (dose: 800.0 mg/kg/injection) and 110 % of control (dose: 1600.0 mg/kg/injection).

For the compound `CS(=O)(=O)OCCCCOS(C)(=O)=O`, the T/C by setting is: (dose: 6.25 mg/kg/injection) 87 % of control and 100 % of control; (dose: 12.5 mg/kg/injection) 100 % of control and 106 % of control; (dose: 25.0 mg/kg/injection) 87 % of control and 100 % of control; (dose: 50.0 mg/kg/injection) 106 % of control.

Regarding `O=NN(CCCl)C(=O)NCCCl`, the T/C is 225 % of control and 245 % of control (dose: 6.25 mg/kg/injection); 215 % of control and 300 % of control (dose: 12.5 mg/kg/injection); 110 % of control (dose: 25.0 mg/kg/injection).

For the compound `O=c1[nH]c(=O)n(C2CC(O)C(CO)O2)cc1F` (stereo not given), the T/C by setting is: (dose: 5.0 mg/kg/injection) 100 % of control; (dose: 10.0 mg/kg/injection) 90 % of control and 104 % of control; (dose: 20.0 mg/kg/injection) 90 % of control and 113 % of control; (dose: 40.0 mg/kg/injection) 104 % of control and 118 % of control; (dose: 80.0 mg/kg/injection) 159 % of control.

Take `CS(=O)(=O)OCC(O)C(O)C(O)C(O)COS(C)(=O)=O` (stereo not given): the T/C by setting is: (dose: 50.0 mg/kg/injection) 100 % of control; (dose: 100.0 mg/kg/injection) 100 % of control; (dose: 200.0 mg/kg/injection) 100 % of control; (dose: 400.0 mg/kg/injection) 100 % of control.

With `CCN(CC)CCNc1ccc(C)c2sc3ccccc3c(=O)c12`, the T/C is, setting by setting: (dose: 25.0 mg/kg/injection) 105 % of control and 122 % of control; (dose: 100.0 mg/kg/injection) 100 % of control.

As to `CCCCNc1ncnc2c1cnn2C`, the T/C by setting is: (dose: 31.3 mg/kg/injection) 100 % of control; (dose: 62.5 mg/kg/injection) 95 % of control and 111 % of control; (dose: 125.0 mg/kg/injection) 88 % of control.

Turning to `S=P(N1CC1)(N1CC1)N1CC1`, the T/C (dose: 0.75 mg/kg/injection) was 112 % of control and the T/C (dose: 6.0 mg/kg/injection) was 162 % of control.

Regarding `CS(=O)(=O)OCCCl`, the T/C by setting is: (dose: 18.8 mg/kg/injection) 105 % of control; (dose: 37.5 mg/kg/injection) 110 % of control and 111 % of control; (dose: 75.0 mg/kg/injection) 111 % of control and 115 % of control; (dose: 150.0 mg/kg/injection) 110 % of control and 122 % of control.

In the case of `c1ccc(CNc2ncnc3[nH]ncc23)cc1`, the T/C is, setting by setting: (dose: 8.0 mg/kg/injection) 90 % of control; (dose: 16.0 mg/kg/injection) 90 % of control and 95 % of control; (dose: 32.0 mg/kg/injection) 90 % of control and 100 % of control; (dose: 64.0 mg/kg/injection) 90 % of control and 105 % of control.

Consider `Cn1c(N)nc2nc[nH]c2c1=S`, for which the T/C runs as follows: (dose: 20.0 mg/kg/injection) 100 % of control; (dose: 40.0 mg/kg/injection) 100 % of control; (dose: 80.0 mg/kg/injection) 95 % of control; (dose: 160.0 mg/kg/injection) 90 % of control.
